Measurements as given in ChEMBL document CHEMBL3822394, “Discovery of a Potent, Selective, Orally Bioavailable, and Efficacious Novel 2-(Pyrazol-4-ylamino)-pyrimidine Inhibitor of the Insulin-like Growth Factor-1 Receptor (IGF-1R)” (J Med Chem, 2016).
Values after ≈ are worked out from the molar mass of the structure shown. Active and inactive are the calls of the source. The calls are words filed in the database; no cut-off is given here.

How the values were obtained:
[1] = Thermodynamic solubility of the compound in aqueous phosphate buffer at pH 7.4 at 25 degC after 24 hrs by LC-UV method; type: physicochemical; details: read-out: Therm_solubility
[2] = Octanol-buffer partition co-efficient, log D of the compound at pH 7.4 by shake-flask method; type: physicochemical
[3] = Oral bioavailability in Beagle dog at 10 umol/kg; type: ADME, organism-based, Canis lupus familiaris; details: in vivo
[4] = Intrinsic clearance in dog hepatocytes assessed per 10^6 cells; type: ADME, cell-based, Canis lupus familiaris, Hepatocyte; details: read-out: CLH
[5] = Fraction unbound in dog plasma by equilibrium dialysis; type: ADME, cell-free, Canis lupus familiaris
[6] = Volume of distribution at steady state in Han Wistar rat plasma at 2 or 4 umol/kg, iv or 10 umol/kg, po; type: ADME, organism-based; details: read-out: Vdss
[7] = Intrinsic clearance in rat hepatocytes assessed per 10^6 cells; type: ADME, cell-based, Hepatocyte; details: read-out: CLH
[8] = Volume of distribution at steady state in Beagle dog at 1 or 4 umol/kg, iv or 10 umol/kg, po; type: ADME, organism-based, Canis lupus familiaris; details: in vivo, read-out: Vdss
[9] = Clearance in Beagle dog plasma at 1 or 4 umol/kg, iv or 10 umol/kg, po; type: ADME, organism-based, Canis lupus familiaris
[10] = Oral bioavailability in Han Wistar rat plasma at 10 umol/kg; type: ADME, organism-based
[11] = Intrinsic clearance in human hepatocytes assessed per 10^6 cells; type: ADME, cell-based, Hepatocyte; details: read-out: CLH
[12] = Fraction unbound in rat plasma by equilibrium dialysis; type: ADME, cell-free
[13] = Clearance in Han Wistar rat plasma at 2 or 4 umol/kg, iv or 10 umol/kg, po; type: ADME, organism-based
[14] = Clearance in Han Wistar rat blood at 2 or 4 umol/kg, iv or 10 umol/kg, po; type: ADME, organism-based; details: whole blood
[15] = Oral bioavailability in Han Wistar rat blood at 10 umol/kg; type: ADME, organism-based; details: whole blood
[16] = Volume of distribution at steady state in Han Wistar rat blood at 2 or 4 umol/kg, iv or 10 umol/kg, po; type: ADME, organism-based; details: whole blood, read-out: Vdss
COLO 205 [17] = test: Potentiation of gemcitabine-induced antitumor activity against human COLO205 cells xenografted in nude mouse assessed as tumor growth inhibition at 50 mg/kg, po for 1 week followed by drug cessation measured after 14 days; type: functional, organism-based
P12 [18] = test: Inhibition of IGF1R phosphorylation in mouse P12 cells allografted in po dosed nu/nu mouse administered as single dose measured after 1 to 2 hrs post dosing; type: functional, organism-based
COLO 205 [19] = test: Potentiation of gemcitabine-induced antitumor activity against human COLO205 cells xenografted in nude mouse assessed as increase in stasis at 50 mg/kg, po for 1 week; type: functional, organism-based
COLO 205 [20] = test: Antitumor activity against human COLO205 cells xenografted in nude mouse assessed as tumor growth inhibition at 50 mg/kg, po for 2 days per week; type: functional, organism-based
P12 [21] = test: Antitumor activity against mouse P12 cells allografted in nu/nu mouse assessed as tumor growth inhibition at 12.5 to 25 mg/kg, po qd for 7 days; type: functional, organism-based
Mus musculus = test: T>IC50 for IGF1R in nude mouse at 50 mg/kg, po
[22] = AUC in nude mouse at 50 mg/kg, po; type: ADME, organism-based; details: in vivo
COLO 205 [23] = test: Potentiation of gemcitabine-induced antitumor activity against human COLO205 cells xenografted in nude mouse assessed as tumor growth inhibition at 25 mg/kg, po for 2 weeks; type: functional, organism-based
[24] = Cmax in nude mouse at 50 mg/kg, po; type: ADME, organism-based; design: dose 50 mg/kg, route oral; details: in vivo
[25] = target: Cyclin-dependent kinase 7 (Homo sapiens, UniProt P50613)
[26] = target: Cyclin-dependent kinase 1 (Homo sapiens, UniProt P06493)
[27] = target: Cyclin-dependent kinase 9 (Homo sapiens, UniProt P50750)
[28] = target: Cyclin-dependent kinase 8 (Homo sapiens, UniProt P49336)
[29] = target: Cyclin-dependent kinase 2 (Homo sapiens, UniProt P24941)
Cytochrome P450 3A4 = Cytochrome P450 3A4 (Homo sapiens, UniProt P08684)
Chain of Cytochrome P450 3A4 (P08684 whole entry): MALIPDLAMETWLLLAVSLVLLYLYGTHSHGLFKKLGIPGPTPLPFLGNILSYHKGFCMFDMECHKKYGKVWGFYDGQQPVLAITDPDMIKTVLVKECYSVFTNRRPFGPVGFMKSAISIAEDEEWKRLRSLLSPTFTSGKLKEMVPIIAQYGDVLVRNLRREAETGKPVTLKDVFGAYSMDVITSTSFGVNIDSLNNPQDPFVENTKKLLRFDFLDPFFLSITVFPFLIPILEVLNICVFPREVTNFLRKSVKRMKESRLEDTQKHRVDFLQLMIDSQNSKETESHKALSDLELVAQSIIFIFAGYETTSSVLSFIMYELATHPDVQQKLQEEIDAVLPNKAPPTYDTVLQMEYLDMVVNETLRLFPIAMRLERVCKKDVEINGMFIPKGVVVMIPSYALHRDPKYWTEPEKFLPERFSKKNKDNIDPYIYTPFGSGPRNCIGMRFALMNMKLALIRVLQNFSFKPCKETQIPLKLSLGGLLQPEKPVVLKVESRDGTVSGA

Chain of Cyclin-dependent kinase 8 (P49336 whole entry): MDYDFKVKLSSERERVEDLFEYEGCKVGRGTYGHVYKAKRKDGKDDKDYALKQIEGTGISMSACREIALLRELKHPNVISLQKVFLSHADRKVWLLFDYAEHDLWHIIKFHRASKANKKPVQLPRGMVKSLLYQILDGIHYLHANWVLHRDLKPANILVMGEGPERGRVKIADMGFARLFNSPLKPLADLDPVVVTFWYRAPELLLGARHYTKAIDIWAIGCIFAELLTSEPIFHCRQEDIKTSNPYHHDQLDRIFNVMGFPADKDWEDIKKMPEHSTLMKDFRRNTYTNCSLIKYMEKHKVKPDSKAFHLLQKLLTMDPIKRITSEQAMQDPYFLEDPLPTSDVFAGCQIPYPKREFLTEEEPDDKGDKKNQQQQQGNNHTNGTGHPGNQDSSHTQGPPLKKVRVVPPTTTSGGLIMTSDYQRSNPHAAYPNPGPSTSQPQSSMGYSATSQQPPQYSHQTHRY
Chain of Cyclin-dependent kinase 9 (P50750 whole entry): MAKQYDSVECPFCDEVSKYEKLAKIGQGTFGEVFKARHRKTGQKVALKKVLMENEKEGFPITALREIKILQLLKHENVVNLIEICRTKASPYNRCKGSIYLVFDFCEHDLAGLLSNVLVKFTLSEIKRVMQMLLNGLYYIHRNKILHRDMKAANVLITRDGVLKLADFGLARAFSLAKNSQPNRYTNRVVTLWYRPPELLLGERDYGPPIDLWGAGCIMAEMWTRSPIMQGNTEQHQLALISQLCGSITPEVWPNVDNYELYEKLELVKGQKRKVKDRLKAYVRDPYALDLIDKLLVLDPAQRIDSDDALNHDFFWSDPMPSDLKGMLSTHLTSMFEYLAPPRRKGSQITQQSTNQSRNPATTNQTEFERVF
Chain of Cyclin-dependent kinase 1 (P06493 whole entry): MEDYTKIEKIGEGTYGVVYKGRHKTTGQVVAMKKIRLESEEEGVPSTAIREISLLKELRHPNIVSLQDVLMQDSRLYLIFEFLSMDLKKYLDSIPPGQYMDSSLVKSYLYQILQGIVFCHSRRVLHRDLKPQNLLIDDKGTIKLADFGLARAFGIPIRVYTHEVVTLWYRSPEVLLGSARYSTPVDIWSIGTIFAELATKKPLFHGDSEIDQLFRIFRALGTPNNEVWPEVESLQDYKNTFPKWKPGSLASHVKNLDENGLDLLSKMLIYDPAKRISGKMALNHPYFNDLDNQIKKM
Chain of Cyclin-dependent kinase 7 (P50613 whole entry): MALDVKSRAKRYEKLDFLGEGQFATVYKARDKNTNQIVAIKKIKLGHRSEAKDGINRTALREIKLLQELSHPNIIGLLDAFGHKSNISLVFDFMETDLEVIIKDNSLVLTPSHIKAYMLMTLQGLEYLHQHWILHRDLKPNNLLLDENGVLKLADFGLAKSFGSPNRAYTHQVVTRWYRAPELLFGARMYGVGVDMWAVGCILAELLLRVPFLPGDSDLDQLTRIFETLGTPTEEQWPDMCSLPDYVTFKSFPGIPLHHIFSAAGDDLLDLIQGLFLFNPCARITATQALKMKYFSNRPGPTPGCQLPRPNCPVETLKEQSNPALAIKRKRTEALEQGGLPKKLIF

SMILES: CNC(=O)CN1CCC(n2nc(C)c(Nc3ncc(Cl)c(-c4cnn5ccccc45)n3)c2C)CC1
- solubility thermodynamic at 24 h [1]: 15 µM (≈ 7.41 µg/mL)
- logD [2]: 3.2

SMILES: Cc1nn(C2CCNCC2)c(C)c1Nc1ncc(Cl)c(-c2cnn3ccccc23)n1
- solubility thermodynamic at 24 h [1]: 91 µM (≈ 38.5 µg/mL)
- logD [2]: 1.2

SMILES: CC(=O)N1CCC(n2ncc(Nc3ncc(Cl)c(-c4cnn5ccccc45)n3)c2C)CC1
- bioavailability [3]: 63%
- hepatocyte CLint [4]: 4.8 µL/min/1e6 cells
- fraction unbound [5]: 0.081
- Vd [6]: 0.4 L/kg
- hepatocyte CLint [7]: 77 µL/min/1e6 cells
- Vd [8]: 0.7 L/kg
- clearance [9]: 6 mL/min/kg
- solubility thermodynamic at 24 h [1]: 9 µM (≈ 4.06 µg/mL)
- bioavailability [10]: 6%
- hepatocyte CLint [11]: < 3 µL/min/1e6 cells
- fraction unbound [12]: 0.057
- logD [2]: 3.2
- clearance [13]: 45 mL/min/kg

SMILES: Cc1nn(C2CCN(C(=O)[C@H](C)N)CC2)c(C)c1Nc1ncc(Cl)c(-c2cnn3ccccc23)n1
- solubility thermodynamic at 24 h [1]: 670 µM (≈ 331 µg/mL)
- logD [2]: 1.7

SMILES: CC(=O)N1CCC(n2cc(Nc3ncc(Cl)c(-c4cnn5ccccc45)n3)c(C)n2)CC1
- hepatocyte CLint [7]: 48 µL/min/1e6 cells
- clearance [14]: 62 mL/min/kg
- solubility thermodynamic at 24 h [1]: 9 µM (≈ 4.06 µg/mL)
- bioavailability [15]: 9%
- fraction unbound [12]: 0.072
- Vd [16]: 1.6 L/kg
- logD [2]: 3.2

SMILES: Cc1nn(C2CCN(C(=O)CO)CC2)c(C)c1Nc1ncc(Cl)c(-c2cnn3ccccc23)n1
- bioavailability [3]: 6%
- hepatocyte CLint [4]: 6.4 µL/min/1e6 cells
- fraction unbound [5]: 0.12
- Vd [6]: 1.2 L/kg
- hepatocyte CLint [7]: 12 µL/min/1e6 cells
- Vd [8]: 1.6 L/kg
- clearance [9]: 5 mL/min/kg
- solubility thermodynamic at 24 h [1]: 2 µM (≈ 0.962 µg/mL)
- bioavailability [10]: 81%
- hepatocyte CLint [11]: < 3 µL/min/1e6 cells
- fraction unbound [12]: 0.091
- logD [2]: 2.6
- clearance [13]: 8 mL/min/kg

SMILES: Cc1nn(C2CCN(C(=O)[C@@H](C)N)CC2)c(C)c1Nc1ncc(Cl)c(-c2cnn3ccccc23)n1
- solubility thermodynamic at 24 h [1]: 620 µM (≈ 306 µg/mL)
- logD [2]: 1.7

SMILES: CCc1nn(C2CCN(C(C)=O)CC2)cc1Nc1ncc(Cl)c(-c2cnn3ccccc23)n1
- logD [2]: 3.4

SMILES: Cc1nn(C2CCN(C(=O)[C@@H](C)O)CC2)c(C)c1Nc1ncc(Cl)c(-c2cnn3ccccc23)n1
- bioavailability [3]: 38%
- TGI (COLO 205 [17]): Active
- hepatocyte CLint [4]: 8.1 µL/min/1e6 cells
- fraction unbound [5]: 0.12
- inhibition (P12 [18]): Dose-dependent effect
- Vd [6]: 0.8 L/kg
- hepatocyte CLint [7]: 21 µL/min/1e6 cells
- Vd [8]: 1.3 L/kg
- clearance [9]: 7 mL/min/kg
- Activity (COLO 205 [19]): Active
- solubility thermodynamic at 24 h [1]: 17 µM (≈ 8.41 µg/mL)
- bioavailability [10]: 58%
- TGI (COLO 205 [20]): Active
- hepatocyte CLint [11]: < 3 µL/min/1e6 cells
- fraction unbound [12]: 0.18
- TGI (P12 [21]): Active
- Time (Mus musculus): 8 h
- logD [2]: 2.9
- AUC [22]: 30 µM·h
- TGI (COLO 205 [23]): Active
- Cmax [24]: 12 µM
- clearance [13]: 15 mL/min/kg

SMILES: CCc1c(Nc2ncc(Cl)c(-c3cnn4ccccc34)n2)cnn1C1CCN(C(C)=O)CC1
- logD [2]: 3.3

SMILES: CC(=O)N1CCC(n2cc(Nc3ncc(Cl)c(-c4cnc5ccccn45)n3)cn2)CC1
- IC50 [25]: 0.021 µM
- IC50 [26]: 0.066 µM
- IC50 [27]: 0.037 µM
- IC50 [28]: 0.042 µM
- IC50 [29]: 0.025 µM
- logD [2]: 3.1

SMILES: CNCC(=O)N1CCC(n2nc(C)c(Nc3ncc(Cl)c(-c4cnn5ccccc45)n3)c2C)CC1
- solubility thermodynamic at 24 h [1]: > 1000 µM
- logD [2]: 1.4

SMILES: CC(=O)N1CCC(n2nc(C)c(Nc3ncc(Cl)c(-c4cnn5ccccc45)n3)c2C)CC1
- hepatocyte CLint [4]: 9.6 µL/min/1e6 cells
- fraction unbound [5]: 0.12
- Vd [6]: 1.3 L/kg
- hepatocyte CLint [7]: 23 µL/min/1e6 cells
- solubility thermodynamic at 24 h [1]: 4 µM (≈ 1.86 µg/mL)
- bioavailability [10]: 61%
- hepatocyte CLint [11]: 8.9 µL/min/1e6 cells
- fraction unbound [12]: 0.086
- logD [2]: 3.1
- clearance [13]: 18 mL/min/kg

SMILES: CCOc1nn(C2CCN(C(C)=O)CC2)cc1Nc1ncc(Cl)c(-c2cnn3ccccc23)n1
- logD [2]: 3.5

SMILES: Cc1nn(C2CCN(C(=O)CN)CC2)c(C)c1Nc1ncc(Cl)c(-c2cnn3ccccc23)n1
- solubility thermodynamic at 24 h [1]: 260 µM (≈ 125 µg/mL)
- logD [2]: 1.3

SMILES: Cc1nn(C2CCN(C(=O)[C@H](C)O)CC2)c(C)c1Nc1ncc(Cl)c(-c2cnn3ccccc23)n1
- solubility thermodynamic at 24 h [1]: 17 µM (≈ 8.41 µg/mL)
- logD [2]: 2.8

SMILES: COc1nn(C2CCN(C(C)=O)CC2)cc1Nc1ncc(Cl)c(-c2cnc3ccccn23)n1
- logD [2]: 2.9

SMILES: CC(=O)N1CCC(n2cc(Nc3ncc(Cl)c(-c4cnc5ccccn45)n3)c(C)n2)CC1
- IC50 [29]: 0.135 µM
- logD [2]: 2.8

SMILES: Cc1nn(C2CCN(CC(=O)N(C)C)CC2)c(C)c1Nc1ncc(Cl)c(-c2cnn3ccccc23)n1
- solubility thermodynamic at 24 h [1]: 510 µM (≈ 259 µg/mL)
- logD [2]: 2.9

SMILES: COc1nn(C2CCN(C(C)=O)CC2)cc1Nc1ncc(Cl)c(-c2cnn3ccccc23)n1
- logD [2]: 3.3

SMILES: CC(=O)N1CCC(n2ncc(Nc3ncc(Cl)c(-c4cnc5ccccn45)n3)c2C)CC1
- logD [2]: 2.7

SMILES: CC(=O)N1CCC(n2nc(C)c(Nc3ncc(Cl)c(-c4cnc5ccccn45)n3)c2C)CC1
- logD [2]: 2.8

SMILES: COCC(=O)N1CCC(n2nc(C)c(Nc3ncc(Cl)c(-c4cnn5ccccc45)n3)c2C)CC1
- solubility thermodynamic at 24 h [1]: 31 µM (≈ 15.3 µg/mL)
- logD [2]: 2.8

SMILES: COc1cc(N2CCN(C(C)=O)CC2)ccc1Nc1ncc(Cl)c(-c2cnn3ccccc23)n1
- IC50 (Cytochrome P450 3A4): < 1 µM
- solubility thermodynamic at 24 h [1]: 1 µM (≈ 0.478 µg/mL)
- IC50 [29]: 1.03 µM
- logD [2]: 3.7

SMILES: Cc1nn(C2CCNCC2)cc1Nc1ncc(Cl)c(-c2cnc3ccccn23)n1
- logD [2]: 1.1

SMILES: Cc1c(Nc2ncc(Cl)c(-c3cnc4ccccn34)n2)cnn1C1CCNCC1
- logD [2]: 0.9

SMILES: Cc1nn(C2CCN(CCO)CC2)c(C)c1Nc1ncc(Cl)c(-c2cnn3ccccc23)n1
- solubility thermodynamic at 24 h [1]: 37 µM (≈ 17.3 µg/mL)
- logD [2]: 2.5
